Laboratory results taken from PubChem BioAssay AID434930 (Broad Institute, 2010).
Inconclusive results are not listed. The source made the active and inactive calls.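 How the source made its calls: active means fitted EC50 no higher than ten times the highest tested concentration; inconclusive means flat fit with 30 to 70% inhibition, or poor fit; inactive means EC50 beyond ten times the top tested dose.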

Tested on: C. albicans CaCi-2 + fluconazole, Alamar Blue growth, 48 h
Assay: C. albicans growth inhibition with fluconazole, dose response, C. albicans CaCi-2 (fluconazole-resistant clinical isolate), fluorescence, retest (AID 434930)

Row | Structure (SMILES) | EC50
1 | COc1cc2c(cc1NC(=O)c1ccco1)CCCC2 | 103 nM
2 | Cc1ccc(C(=O)Nc2cccc(-c3cn4ccccc4n3)c2)cc1 | 6790 nM
3 | COc1ccc(-c2nnc(NC(=O)c3ccc(F)cc3)o2)cc1 | 489 nM
4 | O=C(NNC1=C(C(=O)C(F)(F)F)CCC1)c1ccc(Cl)cc1 | 18800 nM
5 | CCCC(=O)NC(c1ccccc1)c1ccc2cccnc2c1O (stereo not drawn) | 577 nM
6 | COc1ccc(-n2nc(C(=O)NCC(=O)N3CCN(c4ccccc4)CC3)c3ccccc3c2=O)c(OC)c1 | 7170 nM
7 | CCCC(=O)NC(c1ccc(Cl)cc1)c1ccc2cccnc2c1O (stereo not drawn) | 486 nM
8 | Cc1nc2ccccc2cc1OCc1ccc(F)cc1 | 8450 nM
9 | O=C(Nc1nnc(-c2ccco2)o1)c1ccc(Cl)cc1 | 1280 nM
10 | O=C(Nc1nnc(CCc2ccccc2)s1)c1ccco1 | 3080 nM
11 | Clc1ccc2c(c1)C(c1cccs1)=NNC(c1cccnc1)=N2 | 77.8 nM
12 | O=C(Nc1sc2c(c1C(=O)c1ccc(Cl)cc1)CCCC2)c1cccnc1 | 1830 nM
13 | Cc1oc2c(F)c(F)c(F)c(F)c2c1S(=O)(=O)Nc1cccc(C(F)(F)F)c1 | 10800 nM
14 | O=C(Nc1nc(-c2ccccn2)cs1)c1ccc(Br)s1 | 11100 nM
15 | Cc1ccc(/C=C/C(=O)c2ccccc(=O)c2O)cc1C | > 26000 nM (inactive)
16 | Nc1nccnc1C(=O)Nc1nnc(SCc2ccc(Cl)cc2)s1 | 2110 nM
17 | O=C(Oc1c(Cl)cc(Cl)c2cccnc12)c1cccs1 | 280 nM
18 | CC(C)N1CCc2c(sc(NC(=O)c3nc4ccccc4s3)c2C(N)=O)C1 | 1190 nM
19 | O=c1c2cc(Br)ccc2nc(-c2cccc(C(F)(F)F)c2)n1O | 4160 nM
20 | CCOC(=O)N1C(=O)C2(CCCCC2)N(c2ccc(C)cc2)C1=S | < 100 nM
21 | CC(C)COCc1ccc(O)c2ncccc12 | 16500 nM
22 | O=C(Nc1nnc(-c2ccc3c(c2)CCCC3)o1)c1ccc(Cl)cc1Cl | 321 nM
23 | Cc1ccc(C(=O)c2coc3c2C(=O)C(=O)c2ccccc2-3)cc1 | 2890 nM
